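Tested at 5 concentrations; 48 h exposure; 96-well plates; endpoints linearly interpolated, else capped at highest concentration. TGI: concentration producing complete growth inhibition.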
How the values were obtained:
Assay in all cases: NCI anticancer screen, dose series, 48 h
786-0 renal = tested on: 786-0 renal
LOX IMVI melanoma = tested on: LOX IMVI melanoma
HOP-92 NSCLC = tested on: HOP-92 NSCLC
HS 578T breast = tested on: HS 578T breast
DU-145 prostate = tested on: DU-145 prostate
MDA-MB-435 = tested on: MDA-MB-435
HT29 colon = tested on: HT29 colon
UACC-62 melanoma = tested on: UACC-62 melanoma
NCI-H460 lung = tested on: NCI-H460 lung
SW-620 colon = tested on: SW-620 colon
EKVX NSCLC = tested on: EKVX NSCLC
NCI-H522 lung = tested on: NCI-H522 lung
A498 renal = tested on: A498 renal
M14 melanoma = tested on: M14 melanoma
MOLT-4 leukemia = tested on: MOLT-4 leukemia
CAKI-1 renal = tested on: CAKI-1 renal
K-562 leukemia = tested on: K-562 leukemia
HOP-62 NSCLC = tested on: HOP-62 NSCLC
SK-MEL-5 melanoma = tested on: SK-MEL-5 melanoma
OVCAR-5 ovarian = tested on: OVCAR-5 ovarian

COC(=O)C(=O)Nc1cc2c3c(c1)Oc1cccc4c1C3(C)c1c(cccc1O2)O4 was tested, and the TGI (786-0 renal) was greater than 79.7 µM, the TGI (LOX IMVI melanoma) was greater than 100 µM and the TGI (HOP-92 NSCLC) was greater than 100 µM. For the same compound, the TGI (HS 578T breast) was greater than 100 µM, the TGI (DU-145 prostate) was greater than 66.3 µM and the TGI (MDA-MB-435) was greater than 100 µM. It also gave a TGI (HT29 colon) greater than 40.6 µM, a TGI (UACC-62 melanoma) greater than 100 µM and a TGI (NCI-H460 lung) greater than 100 µM. The TGI (SW-620 colon) was greater than 100 µM, the TGI (EKVX NSCLC) was greater than 100 µM and the TGI (NCI-H522 lung) was greater than 100 µM. The TGI (A498 renal) was greater than 100 µM, the TGI (M14 melanoma) was greater than 100 µM and the TGI (MOLT-4 leukemia) was greater than 100 µM. The TGI (CAKI-1 renal) was greater than 100 µM, the TGI (K-562 leukemia) was greater than 100 µM and the TGI (HOP-62 NSCLC) was greater than 100 µM. For the same compound, the TGI (SK-MEL-5 melanoma) was greater than 100 µM and the TGI (OVCAR-5 ovarian) was greater than 100 µM.

Compound Cc1ccc2nc(NS(=O)(=O)c3cc(C)c(Cl)cc3S)[nH]c2c1 has a TGI (786-0 renal) greater than 100 µM, a TGI (LOX IMVI melanoma) of 73.2 µM and a TGI (HOP-92 NSCLC) greater than 100 µM. It also gave a TGI (HS 578T breast) greater than 100 µM, a TGI (DU-145 prostate) greater than 100 µM and a TGI (MDA-MB-435) greater than 100 µM. The TGI (HT29 colon) was greater than 100 µM, the TGI (UACC-62 melanoma) was greater than 100 µM and the TGI (NCI-H460 lung) was 38.6 µM. The TGI (SW-620 colon) was greater than 100 µM, the TGI (EKVX NSCLC) was greater than 100 µM and the TGI (NCI-H522 lung) was greater than 100 µM. It also gave a TGI (A498 renal) greater than 100 µM, a TGI (M14 melanoma) greater than 100 µM and a TGI (MOLT-4 leukemia) greater than 100 µM. The TGI (CAKI-1 renal) was greater than 100 µM, the TGI (K-562 leukemia) was greater than 100 µM and the TGI (HOP-62 NSCLC) was greater than 100 µM. The TGI (SK-MEL-5 melanoma) was greater than 100 µM and the TGI (OVCAR-5 ovarian) was greater than 100 µM.

In the case of CC(C)(C)OC(=O)CCCCCNC(=O)CCCCCNC(=O)CCC(CN(CC(=O)OCc1ccccc1)CC(=O)OCc1ccccc1)N(CC(=O)OCc1ccccc1)CC(=O)OCc1ccccc1 (stereo not given), the TGI (786-0 renal) was greater than 100 µM, the TGI (LOX IMVI melanoma) was greater than 100 µM and the TGI (HOP-92 NSCLC) was greater than 100 µM. It also gave a TGI (HS 578T breast) greater than 100 µM, a TGI (DU-145 prostate) greater than 100 µM and a TGI (MDA-MB-435) greater than 100 µM. It also gave a TGI (HT29 colon) greater than 100 µM, a TGI (UACC-62 melanoma) greater than 100 µM and a TGI (NCI-H460 lung) greater than 100 µM. It also gave a TGI (SW-620 colon) greater than 100 µM, a TGI (EKVX NSCLC) greater than 100 µM and a TGI (NCI-H522 lung) greater than 100 µM. For the same compound, the TGI (A498 renal) was greater than 100 µM, the TGI (M14 melanoma) was greater than 100 µM and the TGI (MOLT-4 leukemia) was greater than 100 µM. The TGI (CAKI-1 renal) was greater than 100 µM, the TGI (K-562 leukemia) was greater than 100 µM and the TGI (HOP-62 NSCLC) was greater than 100 µM. It also gave a TGI (SK-MEL-5 melanoma) greater than 100 µM and a TGI (OVCAR-5 ovarian) greater than 100 µM.

From PubChem BioAssay (NCI)
